Assay: in vitro
Conditions: human, hela cells, % viability

Structure (SMILES)	viability at 28.5 h, 10 µM
CCOC(=O)c1cc2c(=O)n3cc(C)ccc3nc2n(Cc2cccnc2)c1=N [CBK263095]	90.5%
Cc1nc(N/N=C/c2ccc3c(c2)OCO3)sc1C [CBK263098]	106%
CC(C)(O)C#Cc1ccc(C(=O)N2CCN(Cc3ccccc3)CC2)cc1 [CBK263100]	80.3%
NC(=O)c1c(NC(=O)CSc2ccc(Cl)cc2)sc2c1CCCC2 [CBK263101]	77.7%
CCCc1ccc(OCC(=O)Nc2ccccc2C(N)=O)cc1 [CBK263103]	88.7%
O=C(O)C(Cc1ccccc1)N1C(=O)/C(=C/c2ccc([N+](=O)[O-])cc2)SC1=S (stereo not shown) [CBK263108]	84.3%
O=C1NC(=Nc2ccccn2)SC1Cc1ccc(Br)cc1 (stereo not shown) [CBK263109]	82.3%
CC(C)(O)C#Cc1ccc(C(=O)NCCc2ccc(S(N)(=O)=O)cc2)cc1 [CBK263110]	98.2%
Cc1c(Cc2ccccc2)c(N2CCN(C/C=C/c3ccccc3)CC2)n2c(nc3ccccc32)c1C#N [CBK263112]	101%
Cc1noc(NS(=O)(=O)c2ccc(NC(=O)/C=C/c3ccc(Cl)cc3Cl)cc2)c1C [CBK263115]	90.4%
O=C(O)COc1ccccc1/C=N/NC(=O)Cc1ccc(Br)c2ccccc12 [CBK263116]	85.6%
NC(=O)c1ccccc1NC(=O)CCN1C(=O)c2cccc([N+](=O)[O-])c2C1=O [CBK263118]	87.4%
CCOc1ccc2nc(NC3=NC(CC(=O)O)C(=O)N3)nc(C)c2c1 (stereo not shown) [CBK263120]	103%
N#C/C(=C/c1ccc(-c2ccc(S(N)(=O)=O)cc2)o1)C(=O)Nc1ccccc1 [CBK263123]	119%
O=C1N/C(=N/N=C\c2cccc([N+](=O)[O-])c2)SC1Cc1ccc(Br)cc1 (stereo not shown) [CBK263125]	101%
NS(=O)(=O)c1ccc(-c2ccc(/C=C3/SC(=S)N(C4CCCCC4)C3=O)o2)cc1 [CBK263127]	88%
CN1CCN(c2nc3ccccn3c(=O)c2/C=C2\SC(=S)N(CCc3ccccc3)C2=O)CC1 [CBK263131]	110%
NC(=O)c1c(NC(=O)CCN2C(=O)c3cccc([N+](=O)[O-])c3C2=O)sc2c1CCCC2 [CBK263132]	105%
CC1CCCC(C)N1CC(O)COCc1ccc2c(c1)OCO2 (stereo not shown) [CBK263134C]	86.3%
COc1ccc(CCNc2c(Cc3ccccc3)c(C)c(C#N)c3nc4ccccc4n23)cc1OC [CBK263135]	93%

Structure (SMILES)	viability at 28.5 h, 10 µM
Cc1ccc(C(=O)N/C(=C\c2ccccc2F)c2n[nH]c(=S)[nH]2)cc1 [CBK263136]	87.4%
Sc1nnc(COc2ccc(Cl)cc2Cl)n1Cc1ccccc1 [CBK263138]	88.2%
N#Cc1c2c(c(NCCN3CCCCC3)n3c1nc1ccccc13)CCC2 [CBK263140]	114%
C/C(=N\NC(=O)CCN1CCN(C)CC1)c1ccc(O)cc1 [CBK263142]	92.2%
Cc1c(Cc2ccccc2)c(-n2ccnc2C)n2c(nc3ccccc32)c1C#N [CBK263144]	92.4%
O=C(CC(=O)Nc1c(Cl)cccc1C(F)(F)F)Nc1c(Cl)cccc1C(F)(F)F [CBK263148]	103%
Cc1c(Cc2ccccc2)c(N2CCN(Cc3ccccc3)CC2)n2c(nc3ccccc32)c1C#N [CBK263150]	94.9%
CCOCCCNc1c2c(c(C#N)c3nc4ccccc4n13)CCC2 [CBK263151]	93.5%
Cc1ccc2[nH]c3c(c2c1)CCCC3NCC(O)Cc1ccccc1 (stereo not shown) [CBK263154]	87.2%
O=C(O)CN(c1ccccc1[N+](=O)[O-])S(=O)(=O)c1ccccc1 [CBK263158]	95.6%
O=[N+]([O-])c1ccc(CN2CCN(Cc3cccnc3)CC2)cc1 [CBK263161]	109%
Cc1cc([N+](=O)[O-])ccc1NC(=O)Cn1cnc2c1c(=O)n(C)c(=O)n2C [CBK263162]	105%
CN1CCN(/N=C/c2c(C(F)(F)F)[nH]n(-c3nc4ccccc4s3)c2=O)CC1 [CBK263163]	92.4%
CCn1c2ccccc2c2cc(CN3CCN(Cc4cc(OC)cc(OC)c4)CC3)ccc21 [CBK263164]	95.9%
O=C(CCN1CCOCC1)Nc1ccc(Br)cc1C(=O)c1ccccc1 [CBK263165]	93%
Cc1ccc(S(=O)(=O)N(CC(=O)NC2CCCC2)Cc2ccccc2)cc1 [CBK263166]	89.9%
Cc1nc2ccc(NC(=S)N3c4ccccc4CC3C)cc2nc1C (stereo not shown) [CBK263169]	62.5%
C=CCn1c(COc2ccc(Cl)cc2)nnc1SCC(=O)O [CBK263171]	105%
COc1ccccc1N1CCN(/N=C\c2ccccc2OCC(=O)O)CC1 [CBK263173C]	93.5%
COc1cc(/C=C2\N=C(c3cccs3)OC2=O)ccc1OCc1ccc(Cl)cc1 [CBK263176]	101%

Structure (SMILES)	viability at 28.5 h, 10 µM
CCn1c(SCC(=O)N/N=C/C(C)=C/c2ccccc2)nc2ccccc21 [CBK263178]	107%
C/C(=N/NC(=O)CSc1nc2ccccc2n1C)c1cccc([N+](=O)[O-])c1 [CBK263179]	99.3%
C/C(=N\NC(=O)CSc1nc2ccccc2n1Cc1ccccc1)c1ccco1 [CBK263180]	118%
O=C(/C=C/c1ccco1)Nc1sc2c(c1C(=O)O)CCC2 [CBK263181]	97.7%
CCOC(=O)c1c(NC(=O)CSc2nnc(C)s2)sc2c1CCC2 [CBK263183]	91.2%
Cc1cc(=O)oc2ccc(OCC(=O)Nc3ccc(S(=O)(=O)O)cc3)cc12 [CBK263185N]	100%
CCOc1cccc(NC(=O)/C(C#N)=C\c2cc(C)n(-c3cccc(C(=O)O)c3)c2C)c1 [CBK263186]	115%
Nn1cnn2c(SCc3ccccc3)nnc12 [CBK263188]	112%
CCOc1cccc(NC(=O)/C(C#N)=C\c2cc(OC)c(O)cc2Br)c1 [CBK263189]	95.2%
Cn1ccnc1SCC(=O)Nc1ccc(S(N)(=O)=O)cc1 [CBK263190]	84.6%
Nn1cnn2c(SCc3ccc(Cl)cc3)nnc12 [CBK263193]	106%
Nn1cnn2c(SCC(=O)c3ccccc3)nnc12 [CBK263194]	99.8%
O=C(O)c1cccc(-c2ccc(/C=N/Nc3ccc([N+](=O)[O-])cn3)o2)c1 [CBK263196]	89.9%
COc1ccc(C(=O)CSc2nnc3n(N)cnn23)cc1 [CBK263201]	94.6%
CC(=O)c1ccc(NS(=O)(=O)c2cc(C(=O)Nc3ccccc3C(=O)O)ccc2Br)cc1 [CBK263203]	97.2%
O=C(/C=C/c1cn(-c2ccccc2)nc1-c1cccnc1)c1ccc(-c2ccccc2)cc1 [CBK263213]	95.5%
CCC(Sc1ncccc1C(=O)O)C(=O)O (stereo not shown) [CBK263216]	98.4%
CCC1(CC)Cc2ccccc2-c2nc(NN)n(Cc3ccccc3)c(=O)c21 [CBK263217]	102%
Cc1ccc(C(=O)Nc2ccc(C(=O)O)cc2)cc1S(=O)(=O)NCc1ccccc1 [CBK263219]	101%
O=C(O)c1cccc(S(=O)(=O)N(CCO)CCO)c1 [CBK263221]	93.2%

Same assay, conditions: human, hela cells, % viability, bulk resorufin, single well

Structure (SMILES)	viability at 28.5 h, 10 µM
Cc1ccc(CN2CCN(Cc3ccc([N+](=O)[O-])cc3)CC2)cc1 [CBK263168]	92.9%

Reference: PMC12040169 (PLOS Biology, 2025)
